Earlier results in patent publication US5043340A, “Derivatives of 4-desacetyl VLB C-3 carboxhydrazide” (Eli Lilly and Company, priority 1990, dated 1991).

How the values were obtained:
Gardner lymphosarcoma = settings: mouse, in vivo; cited from earlier work
transplanted tumors = settings: mouse, in vivo; cited from earlier work
P 1534(J) leukemia = settings: mouse, in vivo; cited from earlier work
[1] = test system: Ridgeway osteogenic sarcoma; settings: mouse, in vivo; cited from earlier work
[2] = in humans, compared with vincristine; cited from earlier work
[3] = test system: vincristine-resistant leukemias; settings: in humans; cited from earlier work

Row | Structure (SMILES) | activity against Gardner lymphosarcoma (Gardner lymphosarcoma) | anti-tumor activity (transplanted tumors) | activity against P 1534(J) leukemia (P 1534(J) leukemia) | activity against Ridgeway osteogenic sarcoma [1] | neurotoxicity [2] | effective against vincristine-resistant leukemias [3]
1 | CCC1(O)CC2CN(CCc3c([nH]c4ccccc34)C(C(=O)OC)(c3cc4c(cc3OC)N(C)C3C(O)(C(=O)NN)C(O)C5(CC)C=CCN6CCC43C65)C2)C1 (stereo not drawn) [4-desacetyl VLB C-3 carboxhydrazide] | active | active anti-tumor agent against transplanted tumors in mice | active | active |  | 
2 | CC[C@]1(O)C[C@@H]2CN(CCc3c([nH]c4ccccc34)[C@@](C(=O)OC)(c3cc4c(cc3OC)N(C)[C@H]3[C@@](O)(C(N)=O)[C@H](O)[C@]5(CC)C=CCN6CC[C@]43[C@@H]65)C2)C1 [vindesine, 4-desacetyl VLB C-3 carboxamide] |  |  |  |  | less neurotoxicity than does vincristine | apparently effective against vincristine-resistant leukemias
